# Assays:
# [1] = tested on: essentially all tested cultured cells; experiment: cellular toxicity on cultured cells; format: cell-based; settings: up to 50 μM
# HeLa cells = experiment: protection from cell death in low glucose medium (WST); format: cell-based; settings: low glucose 0.2 g/l, 5, 10, 20, and 50 μM, 41 hours
# Procedure: Figure 2 Prevention of cell death and ER stress by KUSs. (a) Photographs of HeLa cells, cultured with DMSO (DMSO) or KUSs (KUS94, KUS121, and KUS187, 20 μM each) for 41 hours in low glucose (0.2 g/l) medium. Scale bar, 100 μm. (b–e) WST (water-soluble tetrazolium salts) values reflecting relative live cell numbers are shown, as optical density (OD) at 450 nm. Error bars indicate SD. (b) WST values of HeLa cells, cultured in low glucose (0.2 g/l) with DMSO (control) or KUSs (50 μM for KUS121; 20 μM for KUS69, KUS94, and KUS187, n = 3) for 41 hours. (c) Cell viability, indicated by WST values of HeLa cells, cultured with tunicamycin (Tm) (0.2 μg/ml) for 41 hours with KUSs (20 μM each, n = 3). […]
# HeLa, HEK293, and PC12 cells were cultured in Dulbecco's modified Eagle's medium (DMEM) with 10% fetal bovine serum. […] Viability of cultured cells was measured by formazan production with an ARVO multilabel counter (Wallac), using WST (water soluble tetrazolium salts)-8 reagent (Cell count reagent SF, Nacalai Tesque, Kyoto, Japan). ATP in cultured cells was measured by luciferase activities with an ARVO multilabel counter, using ATP assay reagent for cells (Toyo B-net, Tokyo, Japan). Acetyl-CoA was measured using a PicoProbe Acetyl CoA assay kit (BioVision, CA, USA) with a Spectra Max multilabel counter (Molecular Devices, CA, USA).
# rd10 mice = experiment: rd10 mouse model of retinitis pigmentosa (SD-OCT, electroretinogram, histology, electron microscopy, western blot); format: in vivo; settings: 21-day-old, 50 mg/kg daily i.p. from day 7, vs control
# Procedure: Starting 7 days after birth, KUS121 or KUS187 was administered daily (50 mg/kg) by intraperitoneal injection. […] To test the visual function of the mice, dark-adapted electroretinograms were recorded. The amplitude of the a-wave, which represents visual function of photoreceptors, was smaller in the control mice than in the KUS-treated mice (Supplementary Fig. 5b and c). The peak latency of the a-wave, which negatively correlates with visual function of photoreceptors, was delayed in the control mice as compared with the KUS-treated mice (Supplementary Fig. 5d). At age 25 days, the thinning of the outer nuclear layer (ONL) was clearly observed in the control mice (Fig. 5a). The outer nuclear layer and the junction line between the inner segment and outer segment (arrow heads in Fig. 5a), which is generally considered to be positively associated with visual function, were clearly detected in the KUS-treated but not in control mice. […] At age 29 days, the photoreceptor layer was barely detected in SD-OCT images, and electroretinogram records were almost flat in control mice. […]
# Spectral-domain optical coherence tomography (SD-OCT) examinations using Multiline OCT (Heidelberg Engineering, Heidelberg, Germany) were performed[33] in rd10 mice at ages of 21, 25, 29, and 33days. Total retinal thickness (from inner limiting membrane to Bruch membrane) in rd10 mice was measured using volume scan images[33] within a circle 0.366 mm in diameter, the center of which was adjusted to the center of the optic nerve head. […]
# Electroretinogram recording was performed to assess the visual function of rd10 mice at ages of 21, 25, 29, and 33 days. […] Electroretinograms were recorded using a gold loop corneal electrode with a light-emitting diode (Mayo Corp., Inazawa, Japan). […] The electroretinogram response signals were amplified, digitized at 10 kHz with a band-pass filter of 0.3 to 500 Hz, and analyzed (PowerLab 2/25; AD instruments, New South Wales, Australia). […]
compound,measurement,setting,value
Cc1cc(F)ccc1-c1ccc(/N=N/c2cc(S(=O)(=O)O)c3ccccc3c2N)cn1 [KUS121],apparent cellular toxicity,[1],did not manifest any apparent cellular toxicity
same,dose dependence of protective effect,HeLa cells,dose-dependent
same,"mean amplitude of the a-wave, dark-adapted electroretinogram",rd10 mice,larger than that in control rd10 mice
